The test system of this assay is CD2F1 mice, L1210 leukemia ip, survival T/C. The assay can be described thus: NCI In Vivo Anticancer Drug Screen. Data for tumor model L1210 Leukemia (intraperitoneal) in CD2F1 (CDF1) mice. Conditions: higher = longer survival. An outline of the steps:
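Mice carrying a transplanted tumor received test compound or vehicle alone. The value is the measurement in the treated group divided by that in the vehicle-treated control group.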

Setting [1] is: endpoint: mean survival time, dose: 100.0 mg/kg/injection, schedule: Q01DX009 (ip), vehicle: saline with Tween-80.
Where [2] appears, read: endpoint: mean survival time, dose: 100.0 mg/kg/injection, schedule: Q04DX003 (ip), vehicle: saline with Tween-80.
The mark [3] stands for this setting: endpoint: mean survival time, dose: 200.0 mg/kg/injection, schedule: Q01DX009 (ip), vehicle: saline with Tween-80.
Setting [4] is: endpoint: mean survival time, dose: 200.0 mg/kg/injection, schedule: Q04DX003 (ip), vehicle: saline with Tween-80.
Setting [5] is: endpoint: mean survival time, dose: 400.0 mg/kg/injection, schedule: Q01DX009 (ip), vehicle: saline with Tween-80.
Setting [6] is: endpoint: mean survival time, dose: 400.0 mg/kg/injection, schedule: Q04DX003 (ip), vehicle: saline with Tween-80.
Setting [7] is: endpoint: mean survival time, dose: 50.0 mg/kg/injection, schedule: Q01DX009 (ip), vehicle: saline with Tween-80.
Where [8] appears, read: endpoint: mean survival time, dose: 25.0 mg/kg/injection, schedule: Q04DX002 (ip), vehicle: saline with Tween-80.

Molecules are shown by their SMILES. Values joined by “and” are separate entries in the source; they are usually repeats but may differ in a detail not shown here. Equal values may be shown once. Inconclusive results and toxic doses are left out. Non-standard residues stand in square brackets, D forms with d. Residues, ends and D or L forms follow the SMILES beside them. ξ: configuration not given here. *: point of attachment. Boc = CC(C)(C)OC(=O)*; ξP = O=C(O)C1CCCN1

As to `COC(=O)CNC(=O)C1CCCN1C(=O)OC(C)(C)C` (centres undefined) (Boc-[ξP]-Gly-OMe), the T/C is 94 % of control (endpoint: mean survival time, dose: 100.0 mg/kg/injection, schedule: Q04DX003 (ip), vehicle: saline); 97 % of control (endpoint: mean survival time, dose: 200.0 mg/kg/injection, schedule: Q04DX003 (ip), vehicle: saline); 107 % of control (endpoint: mean survival time, dose: 400.0 mg/kg/injection, schedule: Q04DX003 (ip), vehicle: saline).
With `O=C(O)c1ccc(C(=O)O)o1.[NH-]C1CCCCC1[NH-].[Pt+2]`, the T/C runs as follows: (endpoint: mean survival time, dose: 1.25 mg/kg/injection, schedule: Q04DX003 (ip), vehicle: dextrose) 122 % of control and 102 % of control; (endpoint: mean survival time, dose: 2.5 mg/kg/injection, schedule: Q04DX003 (ip), vehicle: dextrose) 111 % of control and 112 % of control; (endpoint: mean survival time, dose: 5.0 mg/kg/injection, schedule: Q04DX003 (ip), vehicle: dextrose) 117 % of control; (endpoint: mean survival time, dose: 20.0 mg/kg/injection, schedule: Q04DX003 (ip), vehicle: dextrose) 183 % of control; (endpoint: mean survival time, dose: 40.0 mg/kg/injection, schedule: Q04DX003 (ip), vehicle: dextrose) 94 % of control.
Regarding `CC(O)CC(C)(C)S(=O)(=O)Cc1ccccc1` (centres undefined), the T/C is 101 % of control (endpoint: mean survival time, dose: 100.0 mg/kg/injection, schedule: Q01DX001 (ip), vehicle: Klucel (hydroxypropylcellulose) (HPC)); 86 % of control (endpoint: mean survival time, dose: 200.0 mg/kg/injection, schedule: Q01DX001 (ip), vehicle: Klucel (hydroxypropylcellulose) (HPC)); 93 % of control (endpoint: mean survival time, dose: 400.0 mg/kg/injection, schedule: Q01DX001 (ip), vehicle: Klucel (hydroxypropylcellulose) (HPC)).
With `Cc1cc(C)c(C)cc1C`, the T/C is 92 % of control under setting [1]; 96 % of control under setting [2]; 96 % of control under setting [3]; 100 % of control under setting [4]; 88 % of control under setting [5]; 94 % of control under setting [6].
`Cc1ncc(C[P+](c2ccccc2)(c2ccccc2)c2ccccc2)c2c1OC(C)(C)OC2`: the T/C by setting is: (endpoint: mean survival time, dose: 75.0 mg/kg/injection, schedule: Q01DX001 (ip), vehicle: saline) 103 % of control; (endpoint: mean survival time, dose: 150.0 mg/kg/injection, schedule: Q01DX001 (ip), vehicle: saline) 112 % of control.
Turning to `CCCSC(=O)Nc1cccc(OC(=O)NC)c1`, the T/C was 99 % of control under setting [2], 94 % of control under setting [4] and 99 % of control under setting [6].
As for `O=C(O)/C=C/C(=O)Nc1cccc2ccccc12`, the T/C under setting [7] is 105 % of control; the T/C under setting [1] is 100 % of control; the T/C under setting [2] was 95 % of control; the T/C under setting [3] was 89 % of control; the T/C under setting [4] was 105 % of control.
Consider `CCCN(CCC)S(=O)(=O)c1ccc(NC(=O)Oc2ccccc2OC)cc1`, for which the T/C is 95 % of control (endpoint: mean survival time, dose: 100.0 mg/kg/injection, schedule: Q01DX001 (ip), vehicle: saline); 91 % of control (endpoint: mean survival time, dose: 200.0 mg/kg/injection, schedule: Q01DX001 (ip), vehicle: saline); 91 % of control (endpoint: mean survival time, dose: 400.0 mg/kg/injection, schedule: Q01DX001 (ip), vehicle: saline).
With `O=c1[nH]cc(Br)c2sccc12`, the T/C under setting [7] is 102 % of control and the T/C under setting [1] was 104 % of control.
For `CC(C)OC(=O)Nc1ccncc1`, the T/C under setting [8] was 104 % of control.
Consider `COC(=O)CC(N)C(=O)O` (centres undefined), for which the T/C reads like this: (endpoint: median survival time, dose: 6.25 mg/kg/injection, schedule: Q01DX009 (ip), vehicle: saline) 100 % of control; (endpoint: median survival time, dose: 12.5 mg/kg/injection, schedule: Q01DX009 (ip), vehicle: saline) 97 % of control; (endpoint: median survival time, dose: 25.0 mg/kg/injection, schedule: Q01DX009 (ip), vehicle: saline) 98 % of control; (endpoint: median survival time, dose: 50.0 mg/kg/injection, schedule: Q01DX009 (ip), vehicle: saline) 94 % of control; (endpoint: median survival time, dose: 100.0 mg/kg/injection, schedule: Q01DX009 (ip), vehicle: saline) 98 % of control; (endpoint: median survival time, dose: 200.0 mg/kg/injection, schedule: Q01DX009 (ip), vehicle: saline) 97 % of control.
`CCC1CCCCC1(O)CC` (centres undefined): the T/C under setting [2] was 106 % of control, the T/C under setting [4] was 103 % of control and the T/C under setting [6] is 103 % of control.
Consider `C1OCN2CSCC12` (centres undefined), for which the T/C reads like this: (endpoint: mean survival time, dose: 12.5 mg/kg/injection, schedule: Q01DX009 (ip), vehicle: saline with Tween-80) 93 % of control and 96 % of control; (endpoint: mean survival time, dose: 25.0 mg/kg/injection, schedule: Q01DX009 (ip), vehicle: saline with Tween-80) 98 % of control and 100 % of control; under setting [7], 98 % of control and 102 % of control; under setting [1], 101 % of control and 103 % of control; under setting [3], 104 % of control and 108 % of control; under setting [5], 110 % of control.
In the case of `O=C(O)c1ccccc1C(=O)c1cccc2ccccc12`, the T/C is 104 % of control under setting [2] and 96 % of control under setting [4].
Take `C=CCN(N=O)C(=O)OCC`: the T/C reads like this: (endpoint: mean survival time, dose: 12.5 mg/kg/injection, schedule: Q01DX009 (ip), vehicle: other) 107 % of control; (endpoint: mean survival time, dose: 25.0 mg/kg/injection, schedule: Q01DX009 (ip), vehicle: other) 107 % of control; (endpoint: mean survival time, dose: 50.0 mg/kg/injection, schedule: Q01DX009 (ip), vehicle: other) 104 % of control; (endpoint: mean survival time, dose: 100.0 mg/kg/injection, schedule: Q01DX009 (ip), vehicle: other) 113 % of control.
`C/C=C1\C[C@@H]2C(OC)Nc3cc(O)c(OC)cc3C(=O)N2C1` (some centres undefined): the T/C runs as follows: (endpoint: mean survival time, dose: 0.03 mg/kg/injection, schedule: Q01DX009 (ip), vehicle: saline) 103 % of control; (endpoint: mean survival time, dose: 0.03 mg/kg/injection, schedule: Q01DX009 (ip), vehicle: suspension in saline) 102 % of control; (endpoint: mean survival time, dose: 0.06 mg/kg/injection, schedule: Q01DX009 (ip), vehicle: saline) 104 % of control; (endpoint: mean survival time, dose: 0.06 mg/kg/injection, schedule: Q01DX009 (ip), vehicle: suspension in saline) 101 % of control; (endpoint: mean survival time, dose: 0.12 mg/kg/injection, schedule: Q01DX009 (ip), vehicle: saline) 109 % of control; (endpoint: mean survival time, dose: 0.12 mg/kg/injection, schedule: Q01DX009 (ip), vehicle: suspension in saline) 108 % of control. Further, the T/C was 106 % of control (endpoint: mean survival time, dose: 0.25 mg/kg/injection, schedule: Q01DX009 (ip), vehicle: saline); 120 % of control (endpoint: mean survival time, dose: 0.25 mg/kg/injection, schedule: Q01DX009 (ip), vehicle: suspension in saline); 118 % of control (endpoint: mean survival time, dose: 0.5 mg/kg/injection, schedule: Q01DX009 (ip), vehicle: saline); 123 % of control (endpoint: mean survival time, dose: 0.5 mg/kg/injection, schedule: Q01DX009 (ip), vehicle: suspension in saline); 106 % of control (endpoint: mean survival time, dose: 0.75 mg/kg/injection, schedule: Q04DX002 (ip), vehicle: saline); 110 % of control (endpoint: mean survival time, dose: 1.0 mg/kg/injection, schedule: Q01DX009 (ip), vehicle: saline). Also, the T/C is, setting by setting: (endpoint: mean survival time, dose: 1.0 mg/kg/injection, schedule: Q01DX009 (ip), vehicle: suspension in saline) 92 % of control; (endpoint: mean survival time, dose: 1.5 mg/kg/injection, schedule: Q04DX002 (ip), vehicle: saline) 114 % of control.
Take `OC1CCC2=C(C1)C1CCC2C1` (centres undefined): the T/C (endpoint: mean survival time, dose: 12.5 mg/kg/injection, schedule: Q01DX009 (ip), vehicle: saline) is 98 % of control; the T/C (endpoint: mean survival time, dose: 25.0 mg/kg/injection, schedule: Q01DX009 (ip), vehicle: saline) is 103 % of control; the T/C (endpoint: mean survival time, dose: 50.0 mg/kg/injection, schedule: Q01DX009 (ip), vehicle: saline) was 97 % of control.
Consider `CN(/N=C/c1ccc([N+](=O)[O-])cc1)c1ccccc1`, for which the T/C runs as follows: (endpoint: mean survival time, dose: 100.0 mg/kg/injection, schedule: Q01DX001 (ip), vehicle: saline with Tween-80) 100 % of control; (endpoint: mean survival time, dose: 200.0 mg/kg/injection, schedule: Q01DX001 (ip), vehicle: saline with Tween-80) 106 % of control; (endpoint: mean survival time, dose: 400.0 mg/kg/injection, schedule: Q01DX001 (ip), vehicle: saline with Tween-80) 91 % of control.
Take `O=C(C(Oc1ccc(Cl)cc1)Oc1ccc(Cl)cc1)N(O)c1ccccc1OCc1ccccc1`: the T/C by setting is: under setting [2], 102 % of control; under setting [4], 96 % of control; under setting [6], 94 % of control.
Take `CC(C)CC(CC(C)C)C(=O)C1C2CCC(O2)C1C(=O)C(CC(C)C)CC(C)C` (centres undefined): the T/C under setting [8] was 88 % of control.
Take `CC(=O)OCC1OC([S][Sb]([CH3])[CH3])C(OC(C)=O)C(OC(C)=O)C1OC(C)=O` (centres undefined): the T/C (endpoint: mean survival time, dose: 50.0 mg/kg/injection, schedule: Q01DX009 (ip), vehicle: Klucel (hydroxypropylcellulose) (HPC)) is 92 % of control.
With `CN(C)c1ccc(/C=C/c2ccc3ccccc3n2)c(F)c1`, the T/C runs as follows: (endpoint: mean survival time, dose: 100.0 mg/kg/injection, schedule: Q01DX009 (ip), vehicle: Klucel (hydroxypropylcellulose) (HPC)) 100 % of control; (endpoint: mean survival time, dose: 200.0 mg/kg/injection, schedule: Q01DX009 (ip), vehicle: Klucel (hydroxypropylcellulose) (HPC)) 98 % of control; (endpoint: mean survival time, dose: 400.0 mg/kg/injection, schedule: Q01DX009 (ip), vehicle: Klucel (hydroxypropylcellulose) (HPC)) 89 % of control.
As for `COc1ccc(/C=C2\SC(=O)NC2=O)cc1`, the T/C is 102 % of control under setting [2] and 100 % of control under setting [4].

These data come from PubChem BioAssay AID256 (DTP/NCI, 2004).
